Patent publication US20250171457A1, “NITROGEN-CONTAINING HETEROCYCLIC COMPOUND HAVING NRF2 ACTIVATION EFFECT” (CHUGAI SEIYAKU KABUSHIKI KAISHA, priority 2022, published 2025)
Counter-ions that a name gives are not always drawn.

system: Nrf2 transcriptional activity (pARE-Luc reporter) in HepG2 cells; assay: In vitro Nrf2 transcriptional activity measurement by ARE-dependent reporter assay in HepG2 cell; assay type: cell-based, human; details: Homo sapiens; HepG2 cells transfected with pARE-Luc, 4 hours at 37° C.; luciferase activity of Example 1-54 or Example 17-23 at 3.75 μM defined as 100%
Description: Test Example 1: In Vitro Nrf2 Transcriptional Activity Measurement by ARE-Dependent Reporter Assay in HepG2 Cell
A human liver cancer-derived cell line HepG2 was transfected with pGL4.37 vector (pARE-Luc, Promega Corp.) and incubated overnight at 37° C. in a humidified atmosphere containing 5% CO2. The cells were dissociated by trypsin treatment, inoculated to a 384-well plate supplemented with a test compound, and incubated at 37° C. for 4 hours. Then, Bright-Glo Reagent (Promega Corp.) was added to the plate, and luciferase activity was measured with Envision plate reader.
Luciferase activity obtained through the action of the compound of Example 1-54 or Example 17-23 at a concentration of 3.75 μM was defined as 100%. The luciferase activity of each well was converted to a response rate (%). The dose-response curve of the compound of each Example was prepared to calculate a 50% effective concentration (EC50).

| Structure (SMILES) | EC50 [nM] |
| --- | --- |
| COCCN1CCC12CN(c1cc(Cl)c(C(=O)N3COc4c(cccc4-c4cc(N5C6CCC5COC6)c(C(=O)O)cc4F)C3)c(Cl)c1)C2 [Compound 7-6, 4-[3-[2,6-Dichloro-4-[1-(2-methoxyethyl)-1,6-diazaspiro[3.3]heptan-6-yl]benzoyl]-2,4-dihydro-1,3-benzoxazin-8-yl]-5-fluoro-2-(3-oxa-8-azabicyclo[3.2.1]octan-8-yl)benzoic acid] | 5.4 |
| Cn1nnc(-c2cc(Cl)c(C(=O)N3COc4c(cccc4-c4cc(N5C6CCC5COC6)c(C(=O)O)cc4F)C3)c(Cl)c2)n1 [Compound 16-9, 4-[3-[2,6-Dichloro-4-(2-methyltetrazol-5-yl)benzoyl]-2,4-dihydro-1,3-benzoxazin-8-yl]-5-fluoro-2-(3-oxa-8-azabicyclo[3.2.1]octan-8-yl)benzoic acid] | 12 |
| COC1(OC)CN(c2cc(Cl)c(C(=O)N3COc4c(cccc4-c4cc(N5C6CCC5COC6)c(C(=O)O)cc4F)C3)c(Cl)c2)[C@@H]1C [Compound 5-12, 4-[3-[2,6-Dichloro-4-[(2R)-3,3-dimethoxy-2-methylazetidin-1-yl]benzoyl]-2,4-dihydro-1,3-benzoxazin-8-yl]-5-fluoro-2-(3-oxa-8-azabicyclo[3.2.1]octan-8-yl)benzoic acid] | 2.1 |
| Cn1cc(-c2cc(Cl)c(C(=O)N3COc4c(cccc4-c4cc(N5C6COCC5C6)c(C(=O)O)cc4F)C3)c(Cl)c2)cn1 [Compound 20-1, 4-[3-[2,6-Dichloro-4-(1-methylpyrazol-4-yl)benzoyl]-2,4-dihydro-1,3-benzoxazin-8-yl]-5-fluoro-2-(3-oxa-6-azabicyclo[3.1.1]heptan-6-yl)benzoic acid N,N-diethylethanamine salt] | 850 |
| CN1C[C@H]2CC[C@@H]1CN2c1cc(Cl)c(C(=O)N2COc3c(cccc3-c3cc(N4C5CCC4COC5)c(C(=O)O)cc3F)C2)c(Cl)c1 [Compound 20-2, 4-[3-[2,6-Dichloro-4-[(1R,4R)-5-methyl-2,5-diazabicyclo[2.2.2]octan-2-yl]benzoyl]-2,4-dihydro-1,3-benzoxazin-8-yl]-5-fluoro-2-(3-oxa-8-azabicyclo[3.2.1]octan-8-yl)benzoic acid] | 24 |
| O=C(O)c1cc(F)c(-c2cccc3c2OCN(C(=O)c2c(Cl)cc(N4CC(N5CC(OC(F)(F)F)C5)C4)cc2Cl)C3)cc1N1C2CCC1COC2 [Compound 11-7, 4-[3-[2,6-Dichloro-4-[3-[3-(trifluoromethoxy)azetidin-1-yl]azetidin-1-yl]benzoyl]-2,4-dihydro-1,3-benzoxazin-8-yl]-5-fluoro-2-(3-oxa-8-azabicyclo [3.2.1]octan-8-yl)benzoic acid] | 5.2 |
| CN1CC2CC(C1)N2c1cc(Cl)c(C(=O)N2COc3c(cccc3-c3cc(N4C5CCC4COC5)c(C(=O)O)cc3F)C2)c(Cl)c1 [Compound 9-10, 4-[3-[2,6-Dichloro-4-(3-methyl-3,6-diazabicyclo[3.1.1]heptan-6-yl)benzoyl]-2,4-dihydro-1,3-benzoxazin-8-yl]-5-fluoro-2-(3-oxa-8-azabicyclo[3.2.1]octan-8-yl)benzoic acid] | 8.8 |
| Cn1cc(-c2cc(Cl)c(C(=O)N3COc4c(ccc(F)c4-c4ccc(C(=O)O)c(N5CCOCC5)c4)C3)c(Cl)c2)cn1 [Compound 13-9, 4-[3-[2,6-Dichloro-4-(1-methylpyrazol-4-yl)benzoyl]-7-fluoro-2,4-dihydro-1,3-benzoxazin-8-yl]-2-morpholin-4-ylbenzoic acid] | 5.2 |
| COCCN1CCN(c2cc(Cl)c(C(=O)N3COc4c(cccc4-c4cc(N5C6CCC5COC6)c(C(=O)O)cc4F)C3)c(Cl)c2)[C@@H](C)C1 [Compound 7-8, 4-[3-[2,6-Dichloro-4-[(2S)-4-(2-methoxyethyl)-2-methylpiperazin-1-yl]benzoyl]-2,4-dihydro-1,3-benzoxazin-8-yl]-5-fluoro-2-(3-oxa-8-azabicyclo[3.2.1]octan-8-yl)benzoic acid] | 3.2 |
| COCCN1CCCN(c2cc(Cl)c(C(=O)N3COc4c(cccc4-c4cc(N5CCOCC5)c(C(=O)O)cc4F)C3)c(Cl)c2)CC1 [Compound 4-25, 4-[3-[2,6-Dichloro-4-[4-(2-methoxyethyl)-1,4-diazepan-1-yl]benzoyl]-2,4-dihydro-1,3-benzoxazin-8-yl]-5-fluoro-2-morpholin-4-ylbenzoic acid] | 1.9 |
| O=C(O)c1cc(F)c(-c2cccc3c2OCN(C(=O)c2c(Cl)cc(N4CC5(CCN(C6COC6)C5)C4)cc2Cl)C3)cc1N1C2CCC1COC2 [Compound 10-2, 4-[3-[2,6-Dichloro-4-[7-(oxetan-3-yl)-2,7-diazaspiro[3.4]octan-2-yl]benzoyl]-2,4-dihydro-1,3-benzoxazin-8-yl]-5-fluoro-2-(3-oxa-8-azabicyclo[3.2.1]octan-8-yl)benzoic acid] | 5.2 |
| COc1ncc(-c2cc(Cl)c(C(=O)N3COc4c(cccc4-c4cc(N5C6CCC5COC6)c(C(=O)O)cc4F)C3)c(Cl)c2)c2nnn(C)c12 [Compound 3-27, 4-[3-[2,6-Dichloro-4-(4-methoxy-3-methyltriazolo[4,5-c]pyridin-7-yl)benzoyl]-2,4-dihydro-1,3-benzoxazin-8-yl]-5-fluoro-2-(3-oxa-8-azabicyclo[3.2.1]octan-8-yl)benzoic acid] | 8.8 |
| CC[C@@H](c1cccc2c1CCN(C(=O)c1c(Cl)cc(-c3cnn(C)c3)cc1Cl)C2)[C@H](C)C(=O)O [Compound 17-8, (2S,3R)-3-[2-[2,6-Dichloro-4-(1-methylpyrazol-4-yl)benzoyl]-3,4-dihydro-1H-isoquinolin-5-yl]-2-methylpentanoic acid] | 20 |
| O=C(O)c1cc(F)c(-c2cccc3c2OCN(C(=O)c2c(Cl)cc(N4CCCC4=O)cc2Cl)C3)cc1N1CCOCC1 [Compound 1-52, 4-[3-[2,6-Dichloro-4-(2-oxopyrrolidin-1-yl)benzoyl]-2,4-dihydro-1,3-benzoxazin-8-yl]-5-fluoro-2-morpholin-4-ylbenzoic acid] | 14 |
| Cn1cc(-c2cc(Cl)c(C(=O)N3COc4c(cccc4-c4ccc(C(=O)O)c(N5CCOCC5)c4F)C3)c(Cl)c2)cn1 [Compound 13-5, 4-[3-[2,6-Dichloro-4-(1-methylpyrazol-4-yl)benzoyl]-2,4-dihydro-1,3-benzoxazin-8-yl]-3-fluoro-2-morpholin-4-ylbenzoic acid] | 16 |
| C[C@H]1CN(c2cc(Cl)c(C(=O)N3COc4c(cccc4-c4cc(N5C6CCC5COC6)c(C(=O)O)cc4F)C3)c(Cl)c2)[C@@H](C)CN1C [Compound 9-13, 4-[3-[2,6-Dichloro-4-[(2S,5S)-2,4,5-trimethylpiperazin-1-yl]benzoyl]-2,4-dihydro-1,3-benzoxazin-8-yl]-5-fluoro-2-(3-oxa-8-azabicyclo[3.2.1]octan-8-yl)benzoic acid] | 6.7 |
| O=C(O)c1cc(F)c(-c2cccc3c2OCN(C(=O)c2c(Cl)cc(N4CC(OC(F)F)C4)cc2Cl)C3)cc1N1C2CCC1COC2 [Compound 1-10, 4-[3-[2,6-Dichloro-4-[3-(difluoromethoxy)azetidin-1-yl]benzoyl]-2,4-dihydro-1,3-benzoxazin-8-yl]-5-fluoro-2-(3-oxa-8-azabicyclo[3.2.1]octan-8-yl)benzoic acid] | 3.1 |
| O=C(O)c1cc(F)c(-c2cccc3c2OCN(C(=O)c2c(Cl)cc(N4CC(N5CC(F)C5)C4)cc2Cl)C3)cc1N1C2CCC1COC2 [Compound 11-9, 4-[3-[2,6-Dichloro-4-[3-(3-fluoroazetidin-1-yl)azetidin-1-yl]benzoyl]-2,4-dihydro-1,3-benzoxazin-8-yl]-5-fluoro-2-(3-oxa-8-azabicyclo[3.2.1]octan-8-yl)benzoic acid] | 2.7 |
| O=C(O)c1cc(F)c(-c2cccc3c2OCN(C(=O)c2c(Cl)ccc4cc(Cl)cnc24)C3)cc1N1CCOCC1 [Compound 13-14, 4-[3-(3,7-Dichloroquinoline-8-carbonyl)-2,4-dihydro-1,3-benzoxazin-8-yl]-5-fluoro-2-morpholin-4-ylbenzoic acid] | 13 |
| COCCN1CCC[C@@H](Oc2cc(Cl)c(C(=O)N3COc4c(cccc4-c4cc(N5CCOCC5)c(C(=O)O)cc4F)C3)c(Cl)c2)C1 [Compound 8-7, 4-[3-[2,6-Dichloro-4-[(3R)-1-(2-methoxyethyl)piperidin-3-yl]oxybenzoyl]-2,4-dihydro-1,3-benzoxazin-8-yl]-5-fluoro-2-morpholin-4-ylbenzoic acid] | 2.1 |
| CN1CCN(c2cc(Cl)c(C(=O)N3COc4c(cccc4-c4cc(N5C6CCC5COC6)c(C(=O)O)cc4F)C3)c(Cl)c2)CC12COC2 [Compound 1-34, 4-[3-[2,6-Dichloro-4-(5-methyl-2-oxa-5,8-diazaspiro[3.5]nonan-8-yl)benzoyl]-2,4-dihydro-1,3-benzoxazin-8-yl]-5-fluoro-2-(3-oxa-8-azabicyclo[3.2.1]octan-8-yl)benzoic acid] | 39 |
| COC1CN(c2cc(Cl)c(C(=O)N3COc4c(cccc4-c4cc(N5C6CCC5COC6)c(C(=O)O)cc4F)C3)c(Cl)c2)CCO1 (centres unmarked) [Compound 1-40, 4-[3-[2,6-Dichloro-4-(2-methoxymorpholin-4-yl)benzoyl]-2,4-dihydro-1,3-benzoxazin-8-yl]-5-fluoro-2-(3-oxa-8-azabicyclo[3.2.1]octan-8-yl)benzoic acid] | 3 |
| O=C(O)c1cc(F)c(-c2cccc3c2OCN(C(=O)c2c(Cl)cc(-c4ccn5cncc5c4)cc2Cl)C3)cc1N1C2CCC1COC2 [Compound 3-18, 4-[3-(2,6-Dichloro-4-imidazo[1,5-a]pyridin-7-ylbenzoyl)-2,4-dihydro-1,3-benzoxazin-8-yl]-5-fluoro-2-(3-oxa-8-azabicyclo[3.2.1]octan-8-yl)benzoic acid] | 20 |
